Assay results: patent US6380238B1, “Indoline derivatives as 5-HT2B and or 5-HTC receptor ligands” (Vernalis Research Limited, priority 1998, dated 2002)
Where a name gives a salt, the structure may show the parent alone. Read-outs that look alike come from different tables or passages of the source.

Key:
5-HT2A receptor [1] = target: T1, 5-HT2A receptor (Homo sapiens, UniProt P28223); assay: Binding to 5-HT2A receptor, [125I]-DOI radioligand, CHO cell line; design: expressed in transfected cells; host or cells: CHO cell line
Procedure: (§1) 1. Binding to Serotonin Receptors
(§2) The binding of compounds of formula (I) to serotonin receptors was determined in vitro by standard methods. The preparations were investigated in accordance with the assays given hereinafter.
Method (c): For the binding to the 5-HT2A receptor the 5-HT2A receptors were radiolabeled with [^125I]-DOI. The affinity of the compounds for 5-HT2A receptors in a CHO cell line was determined according to the procedure of D. J. McKenna and S. J. Peroutka, J. Neurosci., 1989, 9, 3482-90.

5-HT2C receptor [2] = target: T2, 5-HT2C receptor (Homo sapiens, UniProt P28335); assay: Binding to 5-HT2C receptor, [3H]-5-HT radioligand, CHO cell line; design: expressed in transfected cells; host or cells: CHO cell line
T2 sequence (P28335 33-458): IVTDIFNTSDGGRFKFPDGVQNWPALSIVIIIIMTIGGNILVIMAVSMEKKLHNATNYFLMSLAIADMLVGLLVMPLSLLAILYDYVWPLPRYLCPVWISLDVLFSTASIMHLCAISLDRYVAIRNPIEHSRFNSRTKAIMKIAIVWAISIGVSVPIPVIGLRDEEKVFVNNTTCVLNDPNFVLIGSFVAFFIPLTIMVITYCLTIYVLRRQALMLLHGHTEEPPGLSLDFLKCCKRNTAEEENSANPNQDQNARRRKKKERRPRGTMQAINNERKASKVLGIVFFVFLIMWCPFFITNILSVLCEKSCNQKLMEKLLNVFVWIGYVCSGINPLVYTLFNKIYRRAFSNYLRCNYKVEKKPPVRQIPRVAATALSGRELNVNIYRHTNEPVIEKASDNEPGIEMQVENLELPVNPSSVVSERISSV
Procedure: as §1, §2
Method (a): For the binding to the 5-HT2C receptor the 5-HT2C receptors were radiolabeled with [^3H]-5-HT. The affinity of the compounds for 5-HT2C receptors in a CHO cell line was determined according to the procedure of D. Hoyer, G. Engel and H. O. Kalkman, European J. Pharmacol., 1985, 118, 13-23.

human 5-HT2B receptors = target: T3, human 5-HT2B receptors (Homo sapiens, UniProt P41595); assay: Binding to 5-HT2B receptor, [3H]-5-HT radioligand, CHO cell line
T3 construct: expressed in transfected cells; host or cells: CHO cell line
Procedure: as §1, §2
Method (b): For the binding to the 5-HT2B receptor the 5-HT2B receptors were radiolabeled with [^3H]-5-HT. The affinity of the compounds for human 5-HT2B receptors in a CHO cell line was determined according to the procedure of K. Schmnuck, C. Ullmer, P. Engels and H. Lubbert, FEBS Lett., 1994, 342, 85-90.

5-HT2C receptor [3] = target: T2, 5-HT2C receptor; assay: Functional activity, FLIPR calcium assay in CHO cells expressing human 5-HT2C; type: cell-based; design: expressed in transfected cells; host or cells: CHO cells; conditions: for Emax: CHO, read-out: h5-HT2C Relative Efficacy (%)
Procedure: (§3) The functional activity of compounds of formula (I) was assayed using a Fluorimetric Imaging Plate reader (FLIPR). CHO cells expressing the human 5-HT2C or human 5-HT2A receptors were counted and plated into standard 96 well microtitre plates on the day before testing to give a confluent monolayer. The cells were then dye loaded with the calcium sensitive dye, Fluo-3-AM. Unincorporated dye was removed using an automated cell washer to leave a total volume of 100 μL/well of assay buffer (Hanks balanced salt solution containing 20 mM Hepes and 2.5 mM probenecid). The drug (dissolved in 50 μL of the assay buffer) was added at a rate of 70 μL/sec to each well of the FLIPR 96 well plate during fluorescence measurements. The measurements were taken at 1 sec intervals and the maximum fluorescent signal was measured (approx 10-15 secs after drug addition) and compared with the response produced by 10 μM 5-HT (defined as 100%) to which it was expressed as a percentage response (relative efficacy). Dose response curves were constructed using Graphpad Prism (Graph Software Inc.).

5-HT2A receptor [4] = target: T1, 5-HT2A receptor; assay: Functional activity, FLIPR calcium assay in CHO cells expressing human 5-HT2A; type: cell-based; design: expressed in transfected cells; host or cells: CHO cells; conditions: for Emax: CHO, read-out: h5-HT2A Relative Efficacy (%)
Procedure: as §3

5-HT2C syndrome = 5-HT2C syndrome in rats (splayed limbs, hunched posture, retro-pulsion); type: in vivo; conditions: 30 mg/kg s.c.
Procedure: The efficacy of 5-HT2C agonists was assessed for ability to induce a specific syndrome.
The 5-HT2C syndrome is a rapid screening method to assess the in vivo efficacy of 5-HT2C agonists through their ability to induce three specific behaviours in rats. The animals are dosed with either a positive control (mCPP), test compound or vehicle, either sub-cutaneously or p.o. The animals are observed on an open bench, typically 30, 60 and 180 minutes and the degree of syndrome is assessed over a two minute period on a scale of 0-3 depending on the presence and severity of splayed limbs, hunched posture and retro-pulsion, the three specific behaviours which constitute the syndrome. Data is analysed using Kruskal-Wallis Analysis of Variance followed with appropriate post-hoc tests. All statistical analysis are conducted using Excel version 7.0 (Microsoft Corp.) and Statistica version 5.0 (Statsoft, Inc.).

[5] = cited from earlier work
[6] = cited from earlier work; remark: listed apart in the source
5-HT2C receptor [7] = conditions: cited from earlier work
[8] = [125I]-DOI, CHO cell line, read-out: Ki (2A)
[9] = [3H]-5-HT, CHO cell line, read-out: Ki (2C)
[10] = [3H]-5-HT, human receptor, CHO cell line, read-out: Ki (2B)
[11] = FLIPR, CHO cells, Fluo-3-AM, read-out: h5-HT2C EC50
[12] = FLIPR, CHO cells, Fluo-3-AM, read-out: h5-HT2A EC50

T1 sequence (P28223 whole entry): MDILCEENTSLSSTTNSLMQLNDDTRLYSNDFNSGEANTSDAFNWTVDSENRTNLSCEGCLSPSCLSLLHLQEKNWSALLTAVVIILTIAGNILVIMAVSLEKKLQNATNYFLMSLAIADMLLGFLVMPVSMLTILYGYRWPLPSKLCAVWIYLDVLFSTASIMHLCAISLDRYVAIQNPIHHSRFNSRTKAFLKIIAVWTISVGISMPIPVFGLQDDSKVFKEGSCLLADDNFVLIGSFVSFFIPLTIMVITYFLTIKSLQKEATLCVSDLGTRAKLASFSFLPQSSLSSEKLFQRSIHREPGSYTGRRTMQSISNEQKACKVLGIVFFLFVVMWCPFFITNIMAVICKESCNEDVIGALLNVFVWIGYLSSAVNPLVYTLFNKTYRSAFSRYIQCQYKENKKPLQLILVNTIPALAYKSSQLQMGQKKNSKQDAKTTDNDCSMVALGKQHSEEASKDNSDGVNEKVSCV
T3 sequence (P41595 whole entry): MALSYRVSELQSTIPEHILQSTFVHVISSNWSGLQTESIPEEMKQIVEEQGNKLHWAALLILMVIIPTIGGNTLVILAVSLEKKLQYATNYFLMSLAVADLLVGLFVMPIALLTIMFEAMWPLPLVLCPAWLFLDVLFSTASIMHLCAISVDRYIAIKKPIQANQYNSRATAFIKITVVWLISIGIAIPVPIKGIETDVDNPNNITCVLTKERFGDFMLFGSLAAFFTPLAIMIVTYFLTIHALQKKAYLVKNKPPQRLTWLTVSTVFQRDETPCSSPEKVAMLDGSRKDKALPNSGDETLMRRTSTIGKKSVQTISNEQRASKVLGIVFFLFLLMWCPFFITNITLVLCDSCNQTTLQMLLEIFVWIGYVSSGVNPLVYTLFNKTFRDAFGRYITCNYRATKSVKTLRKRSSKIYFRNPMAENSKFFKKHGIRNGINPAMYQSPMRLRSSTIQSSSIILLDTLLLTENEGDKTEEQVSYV

## COc1ccc2c(c1)N(C[C@H](C)N)CC2 [Example 13]
5-HT2A receptor [1]
  Ki: 461 nM
5-HT2C receptor [2]
  Ki: 122 nM
Human 5-HT2B receptors
  Ki: 175 nM
5-HT2C receptor [3]
  EC50: 75 nM
  Emax: 74%
5-HT2A receptor [4]
  EC50: 386 nM
  Emax: 72%

## C[C@H](N)CN1CCc2ccc(Cl)cc21 [Example 10, (S)-1-(6-Chloroindolin-1-yl)-2-propylamine Fumarate]
5-HT2A receptor [1]
  Ki: 252 nM
5-HT2C receptor [2]
  Ki: 55 nM
Human 5-HT2B receptors
  Ki: 138 nM
5-HT2C receptor [3]
  EC50: 125 nM
  Emax: 62%
5-HT2A receptor [4]
  EC50: 2210 nM
  Emax: 49%

## CC(N)CN1CCc2ccc(Cl)cc21 (racemic) [Example 1, (RS)-1-(6-Chloroindolin-1-yl)-2-propylamine Hydrochloride]
5-HT2C syndrome
  time for which significant pharmacological efficacy is maintained (5-HT2C syndrome): at least 180 minutes
5-HT2A receptor [1]
  Ki: 405 nM
5-HT2C receptor [2]
  Ki: 357 nM
Human 5-HT2B receptors
  Ki: 113 nM

## NCCN1CCc2ccc(Br)cc21 [Example 50, 2-(6-Bromoindolin-1-yl)-1-ethylamine Fumarate]
5-HT2A receptor [1]; [8]
  Ki: 332 nM
5-HT2C receptor [2]; [9]
  Ki: 61 nM
Human 5-HT2B receptors; [10]
  Ki: 159 nM
5-HT2C receptor [3]
  Emax: 78%
5-HT2C receptor [3]; [11]
  EC50: 38 nM
5-HT2A receptor [4]
  Emax: 25%
5-HT2A receptor [4]; [12]
  EC50: 4080 nM

## C[C@H](N)CN1CCc2cc(F)c(F)cc21 [Example 22]
5-HT2A receptor [1]
  Ki: 325 nM
5-HT2C receptor [2]
  Ki: 260 nM
Human 5-HT2B receptors
  Ki: 92 nM
5-HT2C receptor [3]
  EC50: 83 nM
  Emax: 87%
5-HT2A receptor [4]
  EC50: 2570 nM
  Emax: 57%

## C[C@@H](N)CN1CCc2ccc(C(F)(F)F)cc21 [Example 26]
5-HT2A receptor [1]
  Ki: 1260 nM
5-HT2C receptor [2]
  Ki: 1160 nM
Human 5-HT2B receptors
  Ki: 761 nM

## C[C@H](N)CN1CCc2ccc(Br)cc21 [Example 12]
5-HT2A receptor [1]
  Ki: 1090 nM
5-HT2C receptor [2]
  Ki: 77 nM
Human 5-HT2B receptors
  Ki: 42 nM
5-HT2C receptor [3]
  EC50: 230 nM
  Emax: 59%
5-HT2A receptor [4]
  EC50: 2410 nM
  Emax: 49%

## Clc1cccc(N2CCNCC2)c1 [mCPP, m-chlorophenylpiperazine]
[5]; obese male and female subjects, subchronic treatment for a 14 day period
  appetite and body weight of obese subjects: decreased the appetite and body weight
[5]; single dose, female volunteers
  food intake in female volunteers: decreased food intake
[6]; rat, in vivo
  appearance of the behavioural satiety sequence: accelerate the appearance of the behavioural satiety sequence
[6]; rats
  food intake in rats: reduce food intake
5-HT2C receptor [7]
  anorectic action in 5-HT2C receptor knockout mutant mice: absent

## NCCN1CCc2ccc(Cl)cc21 [Example 51, 2-(6-Chloroindolin-1-yl)-1-ethylamine Fumarate]
5-HT2A receptor [1]; [8]
  Ki: 1110 nM
5-HT2C receptor [2]; [9]
  Ki: 165 nM
Human 5-HT2B receptors; [10]
  Ki: 140 nM
5-HT2C receptor [3]
  Emax: 88%
5-HT2C receptor [3]; [11]
  EC50: 36 nM
5-HT2A receptor [4]
  Emax: 45%
5-HT2A receptor [4]; [12]
  EC50: 1890 nM

## C[C@H](N)CN1CCc2ccc(C(F)(F)F)cc21 [Example 24]
5-HT2A receptor [1]
  Ki: 1870 nM
5-HT2C receptor [2]
  Ki: 235 nM
Human 5-HT2B receptors
  Ki: 148 nM
5-HT2C receptor [3]
  EC50: 131 nM
  Emax: 72%
5-HT2A receptor [4]
  EC50: 3650 nM
  Emax: 33%

## C[C@H](N)CN1CCc2cc(F)c(C(F)(F)F)cc21 (as salt: fumarate) [Example 60, (S)-1-(5-Fluoro-6-trifluoromethylindolin-1-yl)-2-propylamine Fumarate]
other
  melting point: 190 to 192 °C

## Cc1ccc2c(c1)N(CC(C)N)CC2 (stereo not shown) (as salt: HCl)
other
  melting point: 178 to 179 °C

## COc1cccc2c1N(C[C@H](C)N)CC2 (as salt: fumarate)
other
  melting point: 155 to 156 °C (dec.)

## C[C@H](N)CN1CCc2cc(Cl)ccc21 (as salt: fumarate) [Example 28]
other
  melting point: 207 to 210 °C

## C[C@H](N)CN1CCc2cccc(Br)c21 (as salt: fumarate) [Example 20]
other
  melting point: 202 to 204 °C

## C[C@H](N)CN1CCc2cc(F)ccc21 (as salt: fumarate) [Example 29]
other
  melting point: 175 to 176 °C

## C[C@@H](CN1CCc2ccc(Br)cc21)NCC1CC1 (as salt: HCl)
other
  melting point: 155 to 156 °C

## C[C@H](N)CN1CCc2cc(F)cc(Cl)c21 (as salt: fumarate) [Example 17]
other
  melting point: 195 to 196 °C

## C[C@H](N)CN1CCc2cc(F)c(I)cc21 (as salt: fumarate) [Example 61, (S)-1-(5-Fluoro-6-iodoindolin-1-yl)-2-propylamine Fumarate]
other
  melting point: 185 to 187 °C

## NCCN1CCc2ccc(Cl)cc21 (as salt: fumarate) [Example 51, 2-(6-Chloroindolin-1-yl)-1-ethylamine Fumarate]
other
  melting point: 195 to 196 °C

## C[C@H](N)CN1CCc2ccc(F)cc21 (as salt: fumarate) [Example 9]
other
  melting point: 150 to 153 °C

## CSc1cc2c(cc1F)CCN2CC(C)N (stereo not shown) (as salt: fumarate) [Example 30]
other
  melting point: 96 to 100 °C

## C[C@H](N)CN1CCc2c(F)cccc21 (as salt: fumarate) [Example 35]
other
  melting point: 167 to 168 °C

## CCC(N)CN1CCc2ccc(Cl)cc21 (stereo not shown) (as salt: HCl)
other
  melting point: 188 to 192 °C

## C[C@@H](N)CN1CCc2ccc(C(F)(F)F)cc21 (as salt: fumarate) [Example 26]
other
  melting point: 196 to 197 °C

## CC(C)Sc1ccc2c(c1)N(C[C@H](C)N)CC2 (as salt: fumarate) [Example 42]
other
  melting point: 164 to 165 °C

## COc1ccc2c(c1)N(C[C@H](C)N)CC2 (as salt: fumarate) [Example 13]
other
  melting point: 175 to 176 °C

## C[C@H](N)CN1CCc2ccc(C(F)(F)F)cc21 (as salt: fumarate) [Example 24]
other
  melting point: 197 to 199 °C

## C[C@H](N)CN1CCc2ccc(-c3ccccc3)cc21.O=C(O)/C=C/C(=O)O
other
  melting point: 153 to 154 °C

## C[C@H](N)CN1CCc2cc(F)c(Br)cc21 [Example 25]
5-HT2A receptor [1]
  Ki: 156 nM
5-HT2C receptor [2]
  Ki: 63 nM
Human 5-HT2B receptors
  Ki: 22 nM
5-HT2C receptor [3]
  EC50: 21 nM
  Emax: 81%
5-HT2A receptor [4]
  EC50: 1240 nM
  Emax: 57%

## NCCN1CCc2ccc(Br)cc21 (as salt: fumarate) [Example 50, 2-(6-Bromoindolin-1-yl)-1-ethylamine Fumarate]
other
  melting point: 203 to 206 °C
